Measured values: ChEMBL document CHEMBL3044676, “Effect of Antibiotics on Formation of Aerial Mycelium and Production of Phytotoxins in Streptomyces spp” (2003)
Calls of active or inactive are those of the source. The calls are words filed in the database; no cut-off is given here.

Key:
Streptomyces scabiei [1] = test: Antimicrobial activity against Streptomyces scabiei ATCC 4917314 assessed as inhibition of aerial mycelial growth at 4 ug/disk after 5 days by paper disk method; format: functional; details: for zone of inhibition at 4 µg/disc: ATCC 4917314, 120 h, read-out: DIZ
Streptomyces scabiei [2] = test: Antimicrobial activity against Streptomyces scabiei ATCC 4917314 assessed as inhibition of aerial mycelial growth at 0.04 ug/disk after 5 days by paper disk method; format: functional; details: for zone of inhibition at 0.04 µg/disc: ATCC 4917314, 120 h, read-out: DIZ
Streptomyces scabiei [3] = test: Antimicrobial activity against Streptomyces scabiei ATCC 4917314 assessed as inhibition of aerial mycelial growth at 0.40 ug/disk after 5 days by paper disk method; format: functional; details: for zone of inhibition at 0.4 µg/disc: ATCC 4917314, 120 h, read-out: DIZ
[4] = system: Streptomyces acidiscabies; test: Antimicrobial activity against Streptomyces acidiscabies ATCC 4900315 assessed as inhibition of aerial mycelial growth at 4 ug/disk after 5 days by paper disk method; format: functional; details: for zone of inhibition at 4 µg/disc: ATCC 4900315, 120 h, read-out: DIZ
[5] = system: Streptomyces acidiscabies; test: Antimicrobial activity against Streptomyces acidiscabies ATCC 4900315 assessed as inhibition of aerial mycelial growth at 0.04 ug/disk after 5 days by paper disk method; format: functional
Streptomyces alboniger [6] = test: Antimicrobial activity against Streptomyces alboniger IFO 12738 assessed as inhibition of aerial mycelial growth at 0.04 ug/disk after 5 days by paper disk method; format: functional, organism-based
[7] = system: Streptomyces acidiscabies; test: Antimicrobial activity against Streptomyces acidiscabies ATCC 4900315 assessed as inhibition of aerial mycelial growth at 0.4 ug/disk after 5 days by paper disk method; format: functional; details: for zone of inhibition at 0.4 µg/disc: ATCC 4900315, 120 h, read-out: DIZ
Streptomyces alboniger [8] = test: Antimicrobial activity against Streptomyces alboniger IFO 12738 assessed as inhibition of growth at 4 ug/disk after 5 days by paper disk method; format: functional; details: IFO 12738, 120 h, read-out: DIZ
Streptomyces scabiei [9] = test: Antimicrobial activity against Streptomyces scabiei ATCC 4917314 assessed as inhibition of growth at 4 ug/disk after 5 days by paper disk method; format: functional; details: ATCC 4917314, 120 h, read-out: DIZ
Streptomyces alboniger [10] = test: Antimicrobial activity against Streptomyces alboniger IFO 12738 assessed as inhibition of aerial mycelial growth at 0.4 ug/disk after 5 days by paper disk method; format: functional
Streptomyces alboniger [11] = test: Antimicrobial activity against Streptomyces alboniger IFO 12738 assessed as inhibition of aerial mycelial growth at 4 ug/disk after 5 days by paper disk method; format: functional; details: for zone of inhibition at 4 µg/disc: IFO 12738, 120 h, read-out: DIZ
[12] = system: Streptomyces acidiscabies; test: Antimicrobial activity against Streptomyces acidiscabies ATCC 4900315 assessed as inhibition of growth at 4 ug/disk after 5 days by paper disk method; format: functional; details: for zone of inhibition at 4 µg/disc: ATCC 4900315, 120 h, read-out: DIZ
Streptomyces alboniger [13] = test: Antimicrobial activity against Streptomyces alboniger IFO 12738 assessed as inhibition of growth at 0.4 ug/disk after 5 days by paper disk method; format: functional; details: IFO 12738, 120 h, read-out: DIZ
Streptomyces scabiei [14] = test: Antimicrobial activity against Streptomyces scabiei ATCC 4917314 assessed as inhibition of growth at 0.4 ug/disk after 5 days by paper disk method; format: functional; details: ATCC 4917314, 120 h, read-out: DIZ

SMILES	zone of inhibition at 4 µg/disc (Streptomyces scabiei [1]) [mm]	diameter of the inhibition zone (DIZ) (Streptomyces scabiei [2])	zone of inhibition at 0.4 µg/disc (Streptomyces scabiei [3]) [mm]	zone of inhibition at 4 µg/disc [4] [mm]	diameter of the inhibition zone (DIZ) [5]	diameter of the inhibition zone (DIZ) (Streptomyces alboniger [6])	diameter of the inhibition zone (DIZ) [7]	zone of inhibition at 4 µg/disc (Streptomyces scabiei [9]) [mm]	diameter of the inhibition zone (DIZ) (Streptomyces alboniger [10])	diameter of the inhibition zone (DIZ) (Streptomyces alboniger [11])	diameter of the inhibition zone (DIZ) [4]	further results
O=C(N[C@H](CO)[C@H](O)c1ccc([N+](=O)[O-])cc1)C(Cl)Cl [CHLORAMPHENICOL]	29	inactive	13	10	inactive	inactive	inactive	15	inactive			zone of inhibition at 4 µg/disc (Streptomyces alboniger [8]): 16 mm; zone of inhibition at 4 µg/disc (Streptomyces alboniger [11]): 44 mm
CC1(C)S[C@@H]2[C@H](NC(=O)[C@H](N)c3ccccc3)C(=O)N2[C@H]1C(=O)O [AMPICILLIN]	16	inactive		16	inactive	inactive	inactive		inactive			diameter of the inhibition zone (DIZ) (Streptomyces scabiei [3]): inactive; diameter of the inhibition zone (DIZ) [12]: inactive
N=C(N)NCC(O)CC(O)(C(=O)O)[C@@H]1O[C@@H](N2C=C(CO)C(N)=NC2O)C=C[C@@H]1NC(=O)[C@@H](N)CO (stereo partly specified) [MILDIOMYCIN]		inactive	12	28	inactive	inactive			inactive	inactive		diameter of the inhibition zone (DIZ) (Streptomyces scabiei [1]): inactive; zone of inhibition at 0.4 µg/disc [7]: 11 mm; zone of inhibition at 4 µg/disc [12]: 22 mm
CN[C@@H]1[C@H](O[C@H]2[C@H](O[C@H]3[C@H](O)[C@@H](O)[C@H](N=C(N)N)[C@@H](O)[C@@H]3N=C(N)N)O[C@@H](C)[C@]2(O)C=O)O[C@@H](CO)[C@H](O)[C@H]1O [STREPTOMYCIN]	28	inactive	19		inactive	inactive	inactive	18	inactive	inactive	inactive	zone of inhibition at 0.4 µg/disc (Streptomyces alboniger [13]): 15 mm; zone of inhibition at 0.4 µg/disc (Streptomyces scabiei [14]): 13 mm
CCC[C@@H]1C[C@@H](C(=O)N[C@@H]([C@H]2O[C@H](SC)[C@H](O)[C@@H](O)[C@H]2O)[C@@H](C)O)N(C)C1 [LINCOMYCIN]	40		34		inactive		inactive				inactive	zone of inhibition at 0.04 µg/disc (Streptomyces scabiei [2]): 20 mm; zone of inhibition at 4 µg/disc (Streptomyces alboniger [8]): 12 mm; zone of inhibition at 0.4 µg/disc (Streptomyces alboniger [10]; IFO 12738, 120 h, read-out: DIZ): 18 mm; zone of inhibition at 4 µg/disc (Streptomyces alboniger [11]): 40 mm
CN(C)[C@@H]1C(O)=C(C(N)=O)C(=O)[C@@]2(O)C(O)=C3C(=O)c4c(O)cccc4[C@@](C)(O)[C@H]3[C@H](O)[C@@H]12 [OXYTETRACYCLINE]	37		13		inactive	inactive		13	inactive	inactive	inactive	zone of inhibition at 0.04 µg/disc (Streptomyces scabiei [2]): 10 mm; zone of inhibition at 0.4 µg/disc [7]: 16 mm; zone of inhibition at 4 µg/disc [12]: 34 mm
CN(CC[C@H](N)CC(=O)N[C@H]1CC[C@H](n2ccc(N)nc2=O)O[C@@H]1C(=O)O)C(=N)N [BLASTADIN S]	23	inactive	10	9	inactive	inactive	inactive		inactive	inactive		
